Measurements as given in the supplement of paper PMC10883282.
Structures can show the parent of a compound that is named as a salt. ± gives the standard deviation of the averaged measurements.

System: HS729
Assay: relative viability vs DMSO control (72 h) (fraction); higher = more viable cells
Method in brief: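 Sarcoma cell lines were seeded in 384-well plates at densities chosen for 80–90% confluence, then 24 h later given 2.5 µl of serially diluted compound drawn from source plates spanning 10 mM to 0.0002 mM. They were held 72 h at 37 °C, 5% CO2, with 0.1% DMSO vehicle and a 5 µM positive control included. Relative viability was read with ATPLite as percent growth and averaged over up to triplicate wells. Rescaling placed full at 1 and none at 0.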

| SMILES | relative viability (0.00017 µM) | relative viability (0.00051 µM) | relative viability (0.00152 µM) | relative viability (0.00457 µM) | relative viability (0.01372 µM) | relative viability (0.04115 µM) | relative viability (0.1235 µM) | relative viability (0.3704 µM) | relative viability (1.111 µM) | relative viability (3.333 µM) | relative viability (10 µM) |
| --- | --- | --- | --- | --- | --- | --- | --- | --- | --- | --- | --- |
| COc1cccc2c1C(=O)c1c(O)c3c(c(O)c1C2=O)C[C@@](O)(C(=O)CO)C[C@@H]3O[C@H]1C[C@H](N)[C@H](O)[C@H](C)O1 [Doxorubicin Hydrochloride] | 0.93 ± 0.021 | 0.93 ± 0.047 | 0.949 ± 0.054 | 0.946 ± 0.055 | 0.81 ± 0.029 | 0.6943 ± 0.0048 | 0.525 ± 0.041 | 0.303 ± 0.017 | 0.258 ± 0.0095 | 0.136 ± 0.0072 | 0.118 ± 0.0061 |
| CO[C@H]1C[C@@H]2CC[C@@H](C)[C@@](O)(O2)C(=O)C(=O)N2CCCC[C@H]2C(=O)O[C@H]([C@H](C)C[C@@H]2CC[C@@H](OP(C)(C)=O)[C@H](OC)C2)CC(=O)[C@H](C)/C=C(\C)[C@@H](O)[C@@H](OC)C(=O)[C@H](C)C[C@H](C)/C=C/C=C/C=C/1C [Ridaforolimus] | 0.962 ± 0.012 | 1 ± 0.045 | 0.977 ± 0.048 | 0.907 ± 0.1 | 0.923 ± 0.054 | 0.944 ± 0.0096 | 0.916 ± 0.12 | 0.924 ± 0.096 | 0.86 ± 0.14 | 0.786 ± 0.065 | 0.763 ± 0.052 |
| Cc1cc(C)c(/C=C2\C(=O)Nc3ccccc32)[nH]1 [Semaxanib] | 0.893 ± 0.093 | 0.895 ± 0.11 | 0.895 ± 0.074 | 0.889 ± 0.093 | 0.871 ± 0.086 | 0.883 ± 0.097 | 0.853 ± 0.078 | 0.821 ± 0.069 | 0.762 ± 0.07 | 0.747 ± 0.057 | 0.613 ± 0.036 |
| CN1CCC(COc2cnc(-c3cccc(Cn4nc(-c5cccc(C#N)c5)ccc4=O)c3)nc2)CC1 [Tepotinib] | 1.04 ± 0.054 | 1 ± 0.048 | 0.988 ± 0.034 | 0.983 ± 0.041 | 0.941 ± 0.057 | 0.928 ± 0.055 | 0.987 ± 0.027 | 0.894 ± 0.02 | 0.926 ± 0.038 | 0.831 ± 0.029 | 0.829 ± 0.035 |
| COc1cc2c(Oc3ccc4[nH]c(C)cc4c3F)ncnc2cc1OCCCN1CCCC1 [Cediranib] | 0.964 ± 0.077 | 0.991 ± 0.077 | 0.954 ± 0.044 | 0.962 ± 0.086 | 0.991 ± 0.045 | 0.968 ± 0.057 | 0.94 ± 0.059 | 0.8 ± 0.1 | 0.665 ± 0.039 | 0.834 ± 0.024 | 0.83 ± 0.026 |
| C[C@@H](c1ccc2nccn2c1)n1nnc2ncc(-c3cnn(C)c3)nc21 [Volitinib] | 0.947 ± 0.029 | 0.978 ± 0.013 | 0.978 ± 0.031 | 1.02 ± 0.043 | 0.938 ± 0.021 | 0.952 ± 0.066 | 0.955 ± 0.061 | 1 ± 0.053 | 1 ± 0.08 | 0.97 ± 0.034 | 1.03 ± 0.042 |
| CC1(C)CNc2cc(NC(=O)c3cccnc3NCc3ccncc3)ccc21 [Motesanib] | 0.999 ± 0.075 | 1.03 ± 0.077 | 1 ± 0.077 | 1 ± 0.043 | 0.992 ± 0.037 | 1.03 ± 0.064 | 0.955 ± 0.073 | 0.932 ± 0.046 | 0.872 ± 0.051 | 0.828 ± 0.019 | 0.779 ± 0.065 |
| N#CC[C@H](C1CCCC1)n1cc(-c2ncnc3[nH]ccc23)cn1 [Ruxolitinib] | 1.07 ± 0.028 | 1.07 ± 0.028 | 1.06 ± 0.028 | 1.05 ± 0.027 | 1.02 ± 0.068 | 1.06 ± 0.031 | 1.01 ± 0.031 | 0.989 ± 0.035 | 0.938 ± 0.086 | 0.894 ± 0.1 | 0.764 ± 0.041 |
| Cc1nc(NC(=O)N2CCC[C@H]2C(N)=O)sc1-c1ccnc(C(C)(C)C(F)(F)F)c1 [Alpelisib] | 1 ± 0.028 | 0.935 ± 0.034 | 0.922 ± 0.087 | 0.884 ± 0.042 | 0.838 ± 0.026 | 0.785 ± 0.067 | 0.745 ± 0.06 | 0.68 ± 0.041 | 0.577 ± 0.024 | 0.536 ± 0.039 | 0.445 ± 0.0061 |
